In patent publication US20080145313A1, “Compositions and Methods for the Treatment and Prevention of Neoplastic Disorders” (Genesis Research & Development Corporation Limited, priority 2006, published 2008):
pIC50: −log10 of the molar value. Like-named read-outs stand apart in the source and are kept apart here.

Legend:
[1] = system: HCT-116 cells; experiment: 5FU toxicity in HCT-116 cells after TYMS or DHFR knockdown, SYBR Green; type: cell-based; settings: 5FU continuous for 3 days, read-out: IC50 value of 5FU following TYMS knockdown, HCT-116
Method: (§1) HCT-116 and A549 cells were transfected as described above with 0.1, 1.0 and 10 nM of three TYMS-specific siRNAs, labeled TYMS-1, TYMS-2 and TYM-3 (SEQ ID NO: 4833-4835 (DNA), and SEQ ID NO: 5139-5141 (RNA), or 1.0 and 10 nM control siRNAs (809-ctrl; SEQ ID NO: 4805 (DNA), and SEQ ID NO: 5302 (RNA) and 81ctrl; SEQ ID NO: 4804 (DNA), and SEQ ID NO: 5301 (RNA)). HCT-116 and A549 cells were also similarly transfected with 0.1, 1.0 and 10 nM of three DHFR-specific siRNAs, labeled DHFR-1, DHFR-2 and DHFR-3 (SEQ ID NO: 4836-4838 (DNA), and SEQ ID NO: 5142-5144 (RNA)), or control siRNA (SEQ ID NO: 4805 (DNA), and SEQ ID NO: 5302 (RNA)). Twenty four hours after transfection, cells were exposed to 5FU using a serial dilution starting at 44 μM, in medium containing either 10% normal FCS or 10% dialyzed FCS as described above. 5FU treatment was continuous for 3 days, at which time cell growth was analyzed by measuring DNA content per well using the SYBR Green assay outlined above. […] This combinatorial inhibitory effect was further increased when experiments were done in medium containing dialyzed FCS (FIGS. 27D-F; FIGS. 28D-F).
(§2) FIGS. 29 and 30 show transfection with DHFR siRNA similarly led to a dose-dependent increase in growth inhibition above that caused by the drug alone (control siRNA-transfected cells) in HCT-116 cells (FIGS. 29A-C), and A549 cells (FIGS. 30A-C). This combinatorial inhibitory effect was further increased when experiments were done in medium containing dialyzed FCS (FIGS. 29D-F; FIGS. 30D-F). The changes in the IC50 value for 5FU in HCT-116 and A549 cells following TYMS knockdown by individual siRNAs are listed in Table 16 below.

[2] = system: A549 cells; experiment: 5FU toxicity in A549 cells after TYMS or DHFR knockdown, SYBR Green; type: cell-based, human; settings: 5FU continuous for 3 days, read-out: IC50 value of 5FU following TYMS knockdown, A549
Method: as §1, §2

[3] = system: A549 cells; experiment: Growth inhibition of siRNA-transfected A549 cells, SYBR Green I DNA content; type: cell-based, human; settings: 10 nM siRNA; for Growth Inhibition in A549 cells: DNA content 96 hours after transfection
Summary of the method: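 Growth read-out: cellular DNA quantified with SYBR Green I (485/535 nm) 96 h after transfection, cells frozen, thawed and lysed in PBS/1% Triton X-100, pH 7. Cells (A549, 5×10^3 cells/cm^2) received 10 nM siRNA by RNAiMAX; non-specific siRNA served as control; triplicate wells averaged.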

[4] = system: SK-Mel-5 cells; experiment: Growth inhibition of siRNA-transfected SK-Mel-5 cells, SYBR Green I DNA content; type: cell-based, human; settings: 10 nM siRNA; standardized against control siRNA
Method: A549 cells (human lung cancer cell line; ATCC No. CCL-185), SK-MeI-5 cells (human melanoma cell line; ATCC No. HTB-70), MCF-7 cells (human adenocarcinoma cell line; ATCC No. HTB-22), HCT-116 cells (colorectal carcinoma; ATCC CCL-247) and HCT-116 p53 null cells (derived from ATCC No. CCL-247; Bunz et al., Science 282:1497-1501, 1998) were cultured in RPMI 1640 medium with 10% v/v heat-inactivated fetal calf serum (FCS). Cells were seeded at a density of 5×10^4 cells/cm^2 in multi-well tissue culture plates. Sequences of Stealth™ siRNA duplexes (Invitrogen) targeting human ribonucleotide reductase subunit 1 (SEQ ID NO: 22) and subunit 2 (SEQ ID NO; 38) are given in SEQ ID NO: 4830-4832 (DNA), and SEQ ID NO: 5136-5138 (RNA) for RRM1, and SEQ ID NO: 5306-5308 (DNA), and SEQ ID NO: 5303-5305 (RNA) for RRM2. siRNAs were transfected at different concentrations into cells using Lipofectamine™ RNAiMAX transfection reagent (Invitrogen). Non-specific siRNA (SEQ ID NO: 4804 and 4805 (DNA), and SEQ ID NO: 5301 and 5302 (RNA)) were used as controls. The cellular DNA content was measured using a SYBR Green I-based fluorometric assay at 24, 48, 72 and 96 hours after transfection (120 hours for the MCF-7 cells), as follows. At the indicated time points following reverse transfection, cells were harvested and frozen at −80° C. overnight. Cells were thawed and cell lysis buffer (phosphate-buffered saline (PBS) containing 1% Triton X-100, pH 7) and SYBR Green I (1:10^5 V/V; Invitrogen) was added to the wells and incubated overnight in the dark at 4° C.
The following day, cell lysates were mixed thoroughly, and DNA fluorescence was measured with a Wallac Victor^2 plate reader (Turku, Finland) set at an excitation frequency of 485 nm and measuring emission at 535 nm.
siRNA-mediated inhibition of cancer cell growth using siRNA targeting the YBX1 gene (SEQ ID NO: 92) was determined as follows. SK-MeI-5 cells were cultured in RPMI 1640 medium with 10% v/v heat-inactivated fetal calf serum. Cells were cultured as described above and reverse transfected with 0.1, 1.0, 10 and 40 nM (final concentration) of a pool of YBX1-targeting siRNAs (SEQ ID NO: 4982 and 4983 (DNA), and SEQ ID NO: 5277 and 5278 (RNA); referred to as 994 and 995 in FIG. 19) or a non-specific control (SEQ ID NO: 4804 (DNA), and SEQ ID NO: 5301 (RNA); referred to as Stealth 81 ctrl in FIG. 19), and cell growth determined after 120 h by measuring DNA fluorescence with a Wallac Victor^2 plate reader (Turku, Finland) set at an excitation frequency of 485 nm and measuring emission at 535 nm. Growth inhibition by the siRNA pool was standardized against the inhibition obtained with the control siRNAs.
siRNA-mediated RNAi was also determined on a panel of different cell lines. A549, SK-MeI-5, wt HCT-116, HCT-116−/−p53 and MCF-7 cells were transfected with 10 nM siRNAs targeting YBX-1 and growth inhibition determined as described above. The YBX1 siRNAs are given in SEQ ID NO: 4981 to 4985 (DNA) and SEQ ID NO: 5276-5280 (RNA). A non-specific siRNA (SEQ ID NO: 4804 (DNA) and SEQ ID NO: 5301 (RNA)) was used as control. Growth inhibition by the siRNAs, given in Table 14, was standardized against the inhibition obtained with the control siRNA.

[5] = system: YBX1 mRNA; experiment: YBX1 mRNA level by quantitative RT-PCR in A549 cells; type: cell-based, human; settings: 10 nM siRNA; 24 h post-transfection
Method: A549 cells were transfected with 10 nM RRM1-1 (SEQ ID NO: 4830 (DNA), and SEQ ID NO: 5136 (RNA); light grey bar in FIG. 12A), RRM1-2 (SEQ ID NO: 4831 (DNA), and SEQ ID NO: 5137 (RNA); dark grey bar in FIG. 12A), RRM1-3 (SEQ ID NO: 4832 (DNA), and SEQ ID NO: 5138 (RNA); black bar in FIG. 12A) or control siRNA (SEQ ID NO: 4804 (DNA), and SEQ ID NO: 5301 (RNA)) (open bar in FIG. 12A) and relative mRNA levels quantified 24 h post-transfection. RNA was purified from cells using Trizol® extraction as per the manufacturer's protocol (Invitrogen). cDNA was prepared by digesting approximately 200 ng purified RNA with DNAse I (Invitrogen) for 15 minutes at room temperature, followed by 15 minutes at 65° C. in the presence of 25 mM EDTA. 30 ng random primers were added and incubated for 10 minutes at room temperature, 1 minute on ice; Superscript III polymerase (Invitrogen) was added in presence of 5 nM DTT (Sigma, St Louis, Mo.) and 1 mM deoxyribonucleotides (Invitrogen), and the reaction incubated at 25° C. for 5 minutes, followed by an hour at 55° C. cDNA was diluted 1:3 in 10 mM Tris pH 7.0, and quantitative RT-PCR carried out on an ABI Prism 7900HT (Applied Biosciences, Inc., Foster City, Calif.) using FastStart TaqMan SYBRGreen (Roche, Basel, Switzerland) and specific primers at 360 nM for RRM1 and RRM2 and the housekeeping genes HPRT and Lamin. Primer sequence pairs used for RRM1, RRM2, HPRT and lamin are given in SEQ ID NO: 4881 and 4882; 4883 and 4884; 4885 and 4886; 4887 and 4888 respectively.
A549 cells were transfected with 0.1, 1.0 and 10 nM siRNA (given in SEQ ID NO: 4981 to 4985 (DNA), and SEQ ID NO: 5276-5280 (RNA)) and the relative mRNA levels quantified 24 h post-transfection as described in Example 8.

[6] = cells transfected with 0.1 nM siRNA
[7] = cells transfected with 1 nM siRNA
[8] = cells transfected with 10 nM siRNA

| Substance | pIC50 [1, 6] | pIC50 [1, 7] | pIC50 [1, 8] | pIC50 [2, 6] | pIC50 [2, 7] | pIC50 [2, 8] | Growth Inhibition in A549 cells [3] | growth inhibition, A549 cells ([3]; standardized against control siRNA) | growth inhibition, SK-Mel-5 cells [4] | YBX1-specific reduction of mRNA levels in A549 cells [5] |
| --- | --- | --- | --- | --- | --- | --- | --- | --- | --- | --- |
| SEQ ID NO: 4805: non-specific control siRNA (chain 1 GGGAAATGTCTCCTCCCATTGATTT; chain 2 GGGAAAUGUCUCCUCCCAUUGAUUU; chemistry not given here; one strand in two spellings) [reference compound] | 6.19 | 6.22 | 6.22 | 6.09 | 6.17 | 6.19 |  |  |  |  |
| SEQ ID NO: 4834: siRNA targeting TYMS (chain 1 TGTGGATCCCTTGATAAACCACAGC; chain 2 UGUGGAUCCCUUGAUAAACCACAGC; chemistry not given here; one strand in two spellings) | 6.39 |  | 7.00 | 6.23 | 6.68 | 6.82 | ++ (inhibits by at least 75%) |  |  |  |
| SEQ ID NO: 4835: siRNA targeting TYMS (chain 1 ATTCAGGTAAATATGTGCATCTCCC; chain 2 AUUCAGGUAAAUAUGUGCAUCUCCC; chemistry not given here; one strand in two spellings) | 6.49 | 6.72 | 6.96 | 6.21 | 6.89 | 6.70 | ++ (inhibits by at least 75%) |  |  |  |
| SEQ ID NO: 4981: siRNA targeting YBX1 (chain 1 TGGATAGCGTCTATAATGGTTACGG; chain 2 UGGAUAGCGUCUAUAAUGGUUACGG; chemistry not given here; one strand in two spellings) |  |  |  |  |  |  |  | + (At least 20% inhibition) | ++ (At least 50% inhibition) | ++ (At least 50% inhibition) |
